These are literature values, as cited in the CATMoS acute toxicity set (Mansouri et al. 2021).

Molecules are shown by their SMILES.

The LD50 is the dose expected to kill half of the subjects tested.

The nature of this series: rat acute oral toxicity. As to conditions: in vivo.
Take `CCCCCCCCCCCCCCCCCC(=O)NC(CCC(=O)O)C(=O)O` (configuration not stated): the LD50 was 3000 mg/kg.

`O=[N+]([O-])c1ccc(O)c(Cl)c1`: the LD50 is 900 mg/kg.

As to `CC1(C)COC1=O`, the LD50 is 1470 mg/kg.

For the compound `CC(C)(S)C(N)C(=O)O` (racemic), the LD50 is 365 mg/kg.

Turning to `CO[SiH](OC)OC`, the LD50 was 9330 mg/kg.

`C#CCN1C(=O)CN=C(c2ccccc2)c2cc(Cl)ccc21`: the LD50 is 5820 mg/kg.

On to `NC(=O)C(c1ccccc1)c1ccccc1`, for which the LD50 was 600 mg/kg.

With `CC[Si](OC(C)=O)(OC(C)=O)OC(C)=O`, the LD50 was 1460 mg/kg.

As to `CCCC[N+]1(C)[C@@H]2C[C@@H](OC(=O)[C@H](CO)c3ccccc3)C[C@H]1[C@@H]1O[C@@H]12` (some centres not stated), the LD50 was 1040 mg/kg.

`N[C@@H](CCC(=O)O)C(=O)O`: the LD50 was 14700 mg/kg.

`CC(=O)c1ccc2oc3ncccc3c(=O)c2c1`: the LD50 is 1680 mg/kg.

For the compound `CC(=O)OCCC1=CC2CC(C1)C2(C)C` (configuration not stated), the LD50 was 3000 mg/kg.

On to `N#Cc1ccccc1Cl`, for which the LD50 was 396 mg/kg.

For `CN(C)C(=O)Oc1c(Cl)c(Cl)cc2[nH]c(C(F)(F)F)nc12`, the LD50 was 41 mg/kg.

As for `CN1CCN(CCC(=O)NN=Cc2ccc([N+](=O)[O-])o2)CC1`, the LD50 was 300 mg/kg.

Consider `CCCCC1C(=O)NN(c2ccccc2)C1=O` (configuration not stated), for which the LD50 is 1750 mg/kg.

Take `CCN(CC)CCOc1ccc(C(=C(Cl)c2ccccc2)c2ccccc2)cc1`: the LD50 is 5750 mg/kg.

As for `NS(=O)(=O)c1ccc(Cl)c(S(N)(=O)=O)c1`, the LD50 is 340 mg/kg.

For the compound `C[N+]1(C)CCC(=C(c2ccccc2)c2ccccc2)CC1`, the LD50 is 1110 mg/kg.

Regarding `CCCOCN(C(=O)CCl)c1c(C)cccc1OCC`, the 50% lethal dose (LD50) was 2100 mg/kg.

For the compound `C=C1CC[C@H](O)C/C1=C/C=C1\CCC[C@]2(C)[C@@H]([C@H](C)/C=C/[C@H](C)C(C)C)CC[C@@H]12`, the LD50 was 10 mg/kg.

As to `C=CCSC(C)C1(CC(C)C)C(=O)N=C(O)NC1=O` (configuration not stated), the LD50 is 417 mg/kg.

Regarding `CCOP(=S)(OCC)SCCSCC(=O)NC`, the LD50 is 18 mg/kg.

As to `CCOC(=O)c1c(N)sc2c1CCN(Cc1ccccc1)C2`, the LD50 is 1200 mg/kg.

Consider `c1ccc(C(N2CCOCC2)N2CCOCC2)cc1`, for which the LD50 was 5060 mg/kg.

Turning to `O=C=NCCCCCCNC(=O)N(CCCCCCN=C=O)C(=O)NCCCCCCN=C=O`, the LD50 was 19800 mg/kg.

Turning to `Cc1ccccc1C(O)(c1ccccc1)C(C)CN(C)C` (configuration not stated), the LD50 is 185 mg/kg.

With `COc1cc(N)cn[n+]1-c1ccccc1`, the LD50 was 1330 mg/kg.

In the case of `CCCCC(CC)COC(CBr)c1cccc(C2CCCCC2)c1` (configuration not stated), the LD50 was 250 mg/kg.

Turning to `CC1(CCl)COC1`, the LD50 was 1120 mg/kg.

Take `CC(=O)Nc1cc(Cl)c([N+](=O)[O-])cc1Cl`: the LD50 was 2830 mg/kg.

With `Cc1ccc(N=C=O)cc1N=C=O`, the LD50 was 5800 mg/kg.

Turning to `NC(=O)Cc1c([O-])on[n+]1Cc1ccccc1`, the LD50 is 4450 mg/kg.

With `C=CC(O)C#N` (configuration not stated), the LD50 is 65 mg/kg.

As to `Cc1[nH]c2ccccc2c1C=CC1=[N+](C)c2ccccc2C1(C)C`, the LD50 is 2450 mg/kg.

Consider `CCCn1c(=O)c2[nH]c(C)nc2n(CC(C)C)c1=O`, for which the LD50 was 19 mg/kg.

With `C=C(Cl)CSC(=S)N(CC)CC`, the LD50 is 850 mg/kg.

For `CC(C)(OO)c1ccccc1`, the LD50 was 382 mg/kg.

Regarding `CCC(C)(O)Cc1ccccc1` (configuration not stated), the LD50 was 4000 mg/kg.

Consider `CCOC(=O)C=C(C)OP(=O)(OCC)OCC`, for which the LD50 is 22 mg/kg.

As for `O=C(O)c1nn(Cc2ccc(Cl)cc2)c2ccccc12`, the LD50 is 1140 mg/kg.

As to `CCOP(=S)(OCC)SC1CCSC1` (configuration not stated), the LD50 is 20 mg/kg.

`C=C1C(=O)O[C@@H]2C[C@@H](C)[C@@H]3C=CC(=O)[C@@]3(C)[C@@H](O)[C@H]12`: the LD50 is 125 mg/kg.

Take `CCC/C=C/C(OCC)OCC`: the LD50 is 860 mg/kg.

Consider `FC(F)(F)c1nc2cc(Br)c(Cl)cc2[nH]1`, for which the LD50 was 9.04 mg/kg.

As to `COc1ccc2c(-c3ccc(OCC(O)CNC(C)C)cc3)c(-c3ccccc3)c(=O)oc2c1` (configuration not stated), the 50% lethal dose (LD50) is 1000 mg/kg.

Consider `CC(C)(C)NCC(O)c1cc(Cl)c(N)c(Cl)c1` (configuration not stated), for which the LD50 was 159 mg/kg.

Consider `CN(C)c1ccccc1CS(=O)c1nc2ccccc2[nH]1` (configuration not stated), for which the median lethal dose (LD50) was 1300 mg/kg.

With `FC1(F)CC(C2CC3(Cl)C(Cl)=C(Cl)C2(Cl)C3(Cl)Cl)C1(F)F` (configuration not stated), the median lethal dose (LD50) was 550 mg/kg.

Regarding `COc1ccc2cc(CCC(C)=O)ccc2c1`, the LD50 was 3880 mg/kg.

For `O=C(Cc1ccccc1)OC1=C(OC(=O)Cc2ccccc2)C(=O)OC1=O`, the LD50 was 8000 mg/kg.

Regarding `Cc1ccc(O)c(-n2nc3ccccc3n2)c1`, the LD50 is 10000 mg/kg.

Take `CCc1cnc(C)cn1`: the LD50 was 900 mg/kg.

As for `Nc1ccc(OCCO)c(N)c1`, the LD50 was 1000 mg/kg.

On to `C=C(OP(=O)(OCC)OCC)P(=O)(OC)OC`, for which the LD50 was 173 mg/kg.

`CC(Cc1ccccc1)NCCN1CON=C1c1ccccc1` (configuration not stated): the LD50 was 649 mg/kg.

`COc1ccc(Oc2ccc(NC(=O)N(C)C)cc2)cc1`: the LD50 is 1000 mg/kg.

As to `Cc1c(C)c(C)c2[nH]c(C(F)(F)F)nc2c1C`, the LD50 is 58 mg/kg.

On to `N=C(NN=Cc1ccc(Cl)cc1)NN=Cc1ccc(Cl)cc1`, for which the LD50 is 1350 mg/kg.

For the compound `CCOP(=O)(O)CCCl`, the median lethal dose (LD50) is 1250 mg/kg.

With `CS(=O)C(C)(C)C(N)=O` (configuration not stated), the LD50 is 16000 mg/kg.

For the compound `ON=CC=NO`, the 50% lethal dose (LD50) is 119 mg/kg.
